{
  "source": "patent US20170114329A1",
  "about": "“SCALABLE ORGANOTYPIC MODELS OF TUMOR DORMANCY” (THE REGENTS OF THE UNIVERSITY OF CALIFORNIA, priority 2013, published 2017)",
  "type_in_all_cases": "cell-based, human",
  "key": {"[1]": {"test_system": "Notch1", "test": "Notch1 knockdown in E4ORF1-HUVEC, immunoblot", "details": "normalized to Lamin A/C", "from_the_text": "E4ORF1-HUVECs were infected at 5 MOI with custom-made lentiviruses (Sigma) containing shRNA targeting human Notch1 in a pLKO.1-puro-CMV-TagRFP vector. Empty vector was used as a control (shCtrl). Sequences for shRNA were as follows:\nshNotch1-E4-ECs and shCtrl-E4-ECs were lysed in 2% SDS/PBS. Twenty μg of each lysate was then separated on a Tris-Glycine 4-20% gel. Notch1 was probed with a rabbit polyclonal antibody (AbCam ab27526, 1:500). The blot was stripped and re-probed with a rabbit polyclonal antibody to the nuclear membrane protein Lamin A/C, used here as a loading control (Santa Cruz Biotechnology sc-20681, 1:2000)."}, "[2]": {"test_system": "E4-EC microvascular networks", "test": "Neovascular tip number in microvascular niche cultures", "details": "shNotch1 E4-EC vs shCtrl, day 7", "procedure": "(§1) Microvascular niche cultures were generated with modifications to a previously described protocol, described in Evensen, L., et al. Mural cell associated VEGF is required for organotypic vessel formation. PLoS One 4, e5798 (2009), hereby incorporated by reference in its entirety. LFs or MSCs were seeded alone at a density of 5×10^4 cells/well in 96-well culture plates or with mCherry-E4-ECs at a 5:1 ratio to generate lung-like or BoMa-like microvascular niches, respectively. Cells were suspended in EGM-2 at a concentration 5×10^4 cells/100 μl (stroma only) or 6×10^4 cells/100 μl (stroma+ECs). After depositing 100 μl of cellular suspension per well of a 96-well plate, plates were left undisturbed on a flat surface for 20 min to allow even cell seeding prior to incubation.\nNetwork properties were counted manually using the “cell counter” application in ImageJ.\nE4ORF1-HUVECs were infected at 5 MOI with custom-made lentiviruses (Sigma) containing shRNA targeting human Notch1 in a pLKO.1-puro-CMV-TagRFP vector. Empty vector was used as a control (shCtrl)."}, "[3]": {"test_system": "T4-2 cells", "test": "Growth of YFP T4-2 breast cancer cells on lung stroma (LF) cultures", "details": "add-back to T4-2 cells plated on lung stroma without ECs; normalized to vehicle condition", "procedure": "as §1\nAfter 7 days, YFP tumor cells were suspended in unsupplemented DMEM/F12 (800 cells/ml). YFP tumor cells were seeded (100 μl/well) after washing cultures thrice with PBS. […]\nA macro was written using NIH ImageJ open source software to remove bias from data quantification. […] The total area fraction of the 6×6 tiled image occupied by YFP cells was then calculated. […] For each image, the measured area fraction at day 10 was normalized by the corresponding day 0 value in order to account for any small variations in seeding density from well-to-well."}},
  "note": "Entries after “also recorded” stand apart in the source; their conditions may differ.",
  "data": [
    {"substance": "sh8393: shRNA targeting human Notch1, SEQ ID NO: 1, in pLKO.1-puro-CMV-TagRFP lentiviral vector (CCGGCTTTGTTTCAGGTTCAGTATTCTCGAGAATACTGAACCTGAAACAAAGTTTTT)", "values": [
      {"measurement": "endothelial cell Notch1 expression at the protein level", "setting": "[1]", "result": "significantly reduced endothelial cell Notch1 expression"},
      {"measurement": "number of endothelial tips", "setting": "[2]", "result": "significant reduction in the number of endothelial tips"}
    ]},
    {"substance": "thrombospondin-1 [TSP-1]", "values": [
      {"measurement": "tumor cell growth (normalized tumor cell area fraction)", "setting": "[3]", "result": "significant reduction in tumor cell growth; also recorded: sufficient to suppress BCC growth on lung stroma"}
    ]}
  ]
}
